# Tests used:
# [1] = Ionophoric activity across egg yolk L-alpha-phosphatidylcholine-based liposomal membrane vesicles (unknown origin) assessed as release of chloride ion after 300 seconds by electrode technique in presence of sodium nitrate in external solution; assay type: ADME; conditions: artificial membrane, 5 min
# [2] = Ionophoric activity across egg yolk L-alpha-phosphatidylcholine-based liposomal membrane vesicles (unknown origin) assessed as induction of pH discharge at internal pH 7 and external aqueous phase pH 8 at 3 mol% by pyranine dye-based method in presence of NaCl; conditions: artificial membrane
# [3] = Ionophoric activity across egg yolk L-alpha-phosphatidylcholine-based liposomal membrane vesicles (unknown origin) assessed as release of chloride ion at 5 mol% by electrode technique in presence of 500 mM LiCl; assay type: ADME; conditions: artificial membrane
# [4] = Ionophoric activity across egg yolk L-alpha-phosphatidylcholine-based liposomal membrane vesicles (unknown origin) assessed as induction of pH discharge at internal pH 7 and external aqueous phase pH 8 at 3 mol% by pyranine dye-based method in presence of NaNO3; conditions: artificial membrane
# [5] = Ionophoric activity across egg yolk L-alpha-phosphatidylcholine-based liposomal membrane vesicles (unknown origin) assessed as release of chloride ion at 5 mol% by electrode technique in presence of 500 mM CsCl; assay type: ADME; conditions: artificial membrane
# [6] = Ionophoric activity across egg yolk L-alpha-phosphatidylcholine-based liposomal membrane vesicles (unknown origin) assessed as induction of pH discharge at internal pH 7 and external aqueous phase pH 8 at 3 mol% by pyranine dye-based method in presence of NaI; conditions: artificial membrane
# [7] = Ionophoric activity across egg yolk L-alpha-phosphatidylcholine-based liposomal membrane vesicles (unknown origin) assessed as release of chloride ion after 300 seconds by electrode technique in presence of sodium sulfate in external solution; assay type: ADME; conditions: artificial membrane, 5 min
# [8] = Ionophoric activity across egg yolk L-alpha-phosphatidylcholine-based liposomal membrane vesicles (unknown origin) assessed as release of chloride ion at 5 mol% by electrode technique in presence of 500 mM KCl; assay type: ADME; conditions: artificial membrane
# [9] = Ionophoric activity across egg yolk L-alpha-phosphatidylcholine-based liposomal membrane vesicles (unknown origin) assessed as induction of pH discharge at internal pH 7 and external aqueous phase pH 8 at 3 mol% by pyranine dye-based method in presence of NaBr; conditions: artificial membrane
# [10] = Ionophoric activity across egg yolk L-alpha-phosphatidylcholine-based liposomal membrane vesicles (unknown origin) assessed as release of chloride ion at 5 mol% by electrode technique in presence of 500 mM NaCl; assay type: ADME; conditions: artificial membrane
# [11] = Ionophoric activity across egg yolk L-alpha-phosphatidylcholine-based liposomal membrane vesicles (unknown origin) assessed as release of chloride ion at 5 mol% by electrode technique in presence of 500 mM RbCl; assay type: ADME; conditions: artificial membrane
smiles,measurement,setting,value
C[C@H](CCC(=O)NC(CCCNC(=N)N)C(=O)NCc1ccc(CNC(=O)C(CCCNC(=N)N)NC(=O)CC[C@@H](C)[C@@H]2CC[C@@H]3[C@@H]4[C@@H](C[C@@H](O)[C@]32C)[C@]2(C)CC[C@H](O)C[C@@H]2C[C@@H]4O)cc1)[C@H]1CC[C@H]2[C@@H]3[C@H](O)C[C@@H]4C[C@H](O)CC[C@]4(C)[C@H]3C[C@H](O)[C@]12C (stereo partly specified),Activity,[1],Dose-dependent effect
same,Activity,[2],Active
same,Activity,[3],Active
same,Activity,[4],Active
same,Activity,[5],Active
same,Activity,[6],Active
same,Activity,[7],Active
same,Activity,[8],Active
same,Activity,[9],Active
same,Activity,[10],Active
same,Activity,[11],Active
